Data on 20 compounds can be found in patent publication US4814432A, “Inhibitor of ribonucleotide reductase” (priority 1987, dated 1989).

pIC50: −log10 of the molar value. Where a SMILES comes first, the peptide text is derived from it. Where no end group is shown, it is not given here. [ ]: non-standard residue; d: D form. The star is where a group is joined. Desaminotyrosyl = O=C(CCc1ccc(O)cc1)*; NMeY = CN[C@@H](Cc1ccc(O)cc1)C(=O)O; Aib = CC(C)(N)C(=O)O; Ava = NCCCCC(=O)O

Herpes Simplex Virus Ribonucleotide Reductase (HSV RR), sequence (P89462 whole entry): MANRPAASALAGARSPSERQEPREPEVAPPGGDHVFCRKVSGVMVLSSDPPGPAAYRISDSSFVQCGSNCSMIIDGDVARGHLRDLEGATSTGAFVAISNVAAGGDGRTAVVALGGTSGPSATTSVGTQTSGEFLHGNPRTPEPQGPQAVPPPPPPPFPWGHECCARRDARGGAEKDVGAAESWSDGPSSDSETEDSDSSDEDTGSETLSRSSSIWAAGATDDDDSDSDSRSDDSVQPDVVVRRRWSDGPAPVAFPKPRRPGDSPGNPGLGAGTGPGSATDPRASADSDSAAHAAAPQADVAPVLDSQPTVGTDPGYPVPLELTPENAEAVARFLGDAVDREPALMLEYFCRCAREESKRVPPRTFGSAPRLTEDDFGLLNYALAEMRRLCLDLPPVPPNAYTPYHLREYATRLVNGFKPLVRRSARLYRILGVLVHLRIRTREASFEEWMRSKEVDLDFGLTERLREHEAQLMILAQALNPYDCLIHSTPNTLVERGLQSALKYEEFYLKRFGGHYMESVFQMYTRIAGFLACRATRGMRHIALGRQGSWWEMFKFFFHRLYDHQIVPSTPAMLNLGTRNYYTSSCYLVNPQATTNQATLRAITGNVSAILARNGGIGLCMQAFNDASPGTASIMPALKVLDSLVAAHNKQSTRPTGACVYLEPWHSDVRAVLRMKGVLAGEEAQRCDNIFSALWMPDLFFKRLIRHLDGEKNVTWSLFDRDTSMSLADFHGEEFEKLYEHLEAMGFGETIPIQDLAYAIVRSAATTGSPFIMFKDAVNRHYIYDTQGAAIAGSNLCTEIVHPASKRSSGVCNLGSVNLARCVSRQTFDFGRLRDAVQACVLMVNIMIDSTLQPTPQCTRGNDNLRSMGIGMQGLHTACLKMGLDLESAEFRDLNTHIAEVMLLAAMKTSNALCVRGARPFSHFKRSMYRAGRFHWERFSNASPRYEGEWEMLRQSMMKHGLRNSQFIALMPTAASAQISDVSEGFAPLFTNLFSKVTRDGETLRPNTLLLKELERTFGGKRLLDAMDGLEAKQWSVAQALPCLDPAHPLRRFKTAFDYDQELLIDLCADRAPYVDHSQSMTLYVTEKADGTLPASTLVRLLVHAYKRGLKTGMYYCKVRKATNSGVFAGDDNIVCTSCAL

The first test concerns the target Herpes Simplex Virus Ribonucleotide Reductase (HSV RR) (Human herpesvirus 2, UniProt P89462). The test can be described thus: biochemical.
Conditions: not given
On the procedure:
HSV RR was purified from Baby Hamster Kidney cells that were cultured with HSV2 Strain 186. After infection, cells were harvested and lysed. Crude HSV RR was prepared as described by Huszar et al., J. Virol. 37: 580-588(1981) then subjected to further purification by hydroxyapatite column chromotography.
HSV RR activity was determined as the ability of the enzyme to catalyze the reduction of tritiated cytidine-diphosphate to deoxyribo-cytidine-diphosphate in 30 minutes at 37° C. in the presence of dithiothreitol and MgCl2. Activity of oligopeptide inhibitors was determined by adding them to the reaction mix at the beginning of the incubation. Enzyme was not preincubated with inhibitor.
Oligopeptides were synthesized by either the solid phase method of Merrified, op. cit., or by FMOC chemistry (John Morrow Stewart and Janis Dillaha Young, "Solid Phase Peptide Synthesis," 2nd ed, 1984, Pierce Chemical Co., Rockford, IL.) and purified to >98% homogeneity by reverse phase HPLC and recovered by lyophilization as trifluoroacetic acid salts. These were analyzed for amino acid composition and in some cases sequenced. Dry peptides were resuspended in 100 mM HEPES (pH 8.0) at about 2 mM, relyophilized, and stored in aliquots at -80° C. Immediately prior to use they were rehydrated with distilled H2 O and centrifuged to remove any undissolved peptide. The concentrations of these stock solutions were then determined by measuring A291 nm at basic pH (ε=2.55) for tyrosine-containing peptides and by quantitative amino acid composition for those peptides without tyrosine.
Regarding `CN[C@@H](Cc1ccc(O)cc1)C(=O)N[C@H](C(=O)N[C@H](C(=O)N[C@@H](CC(N)=O)C(=O)N[C@@H](CC(=O)O)C(=O)N[C@@H](CC(C)C)C(=O)O)C(C)C)C(C)C` [MeNY V V N D L] (H-[NMeY]VVNDL-OH), the pIC50 (as a rule, the IC50 on a negative log10 scale, so that one unit is a factor of ten) was 4.92. The same measure, in the same setting: next, `COc1ccc(C[C@H](N)C(=O)N[C@H](C(=O)N[C@H](C(=O)N[C@@H](CC(N)=O)C(=O)N[C@@H](CC(=O)O)C(=O)N[C@@H](CC(C)C)C(=O)O)C(C)C)C(C)C)cc1` [MeOY V V N D L] (H-Y(Me)VVNDL-OH): 4.70; `CC(C)C[C@H](NC(=O)[C@H](CC(=O)O)NC(=O)C(C)(C)NC(=O)[C@@H](NC(=O)[C@@H](NC(=O)[C@H](C)NC(=O)CNC(=O)[C@H](C)NC(=O)[C@@H](N)Cc1ccc(O)cc1)C(C)C)C(C)C)C(=O)O` [Y A G A V V J D L] (H-YAGAVV[Aib]DL-OH): 3.70.

In turn, `CC(C)C[C@H](NC(=O)[C@H](CC(=O)O)NC(=O)[C@H](CC(N)=O)NC(=O)[C@@H](NC(=O)[C@@H](NC(=O)[C@H](Cc1ccc(O)cc1)NC(=O)CCCCNC(=O)[C@@H](N)Cc1ccc(O)cc1)C(C)C)C(C)C)C(=O)O` [YBY V V N D L] (H-Y[Ava]YVVNDL-OH) gave a pIC50 of 4.70. The same measure, in the same setting: then `CC(C)C[C@H](NC(=O)[C@H](CC(=O)O)NC(=O)[C@H](CC(N)=O)NC(=O)[C@@H](NC(=O)[C@@H](NC(=O)CCc1ccc(O)cc1)C(C)C)C(C)C)C(=O)O` [desNH2Y V V N D L], with 4.62; and `CC(C)C[C@H](NC(=O)[C@H](CC(=O)O)NC(=O)[C@H](CC(N)=O)NC(=O)[C@@H](NC(=O)[C@@H](NC(=O)[C@H](C)NC(=O)CCc1ccc(O)cc1)C(C)C)C(C)C)C(=O)O` [desNH2YA V V N D L] (Desaminotyrosyl-AVVNDL-OH), with 3.80. On the same count and under the same terms, next, AAAVVNDL [A AA V V N D L]: 4.11. As for AVVDDL [A V V D D L], the pIC50 is 3.71. Still for that read-out and setting: next, Ac-YVVNDL [AcY V V N D L]: 4.74. On the same count and under the same terms, then FAGAVVNDL [FA G A V V N D L], with 4.25; and FVVNDL [F V V N D L], with 4.19. Compound HVVNDL [H V V N D L] showed a negative logarithm of the IC50 (pIC50) of 4.34. Same read-out and setting: next, KKLEEFLKVVNDL [K K L E E FLK V V N D L]: 3.70; WVVNDL [W V V N D L]: 4.77; YAAVVNDL [YAA V V N D L]: 3.95.

For the compound YAGYVVNDL [Y A G Y V V N D L], the pIC50 is 5.10. Turning to YAPAVVNDL [Y A PA V V N D L], the pIC50 was 4.85. YVVNDL [Y V V N D L] gave a pIC50 of 4.82.

For a further test, the target named is T1, ribonucleotide reductase enzyme of herpes simplex virus (Human herpesvirus 1, UniProt P08543).
T1 sequence (P08543 whole entry, looked up): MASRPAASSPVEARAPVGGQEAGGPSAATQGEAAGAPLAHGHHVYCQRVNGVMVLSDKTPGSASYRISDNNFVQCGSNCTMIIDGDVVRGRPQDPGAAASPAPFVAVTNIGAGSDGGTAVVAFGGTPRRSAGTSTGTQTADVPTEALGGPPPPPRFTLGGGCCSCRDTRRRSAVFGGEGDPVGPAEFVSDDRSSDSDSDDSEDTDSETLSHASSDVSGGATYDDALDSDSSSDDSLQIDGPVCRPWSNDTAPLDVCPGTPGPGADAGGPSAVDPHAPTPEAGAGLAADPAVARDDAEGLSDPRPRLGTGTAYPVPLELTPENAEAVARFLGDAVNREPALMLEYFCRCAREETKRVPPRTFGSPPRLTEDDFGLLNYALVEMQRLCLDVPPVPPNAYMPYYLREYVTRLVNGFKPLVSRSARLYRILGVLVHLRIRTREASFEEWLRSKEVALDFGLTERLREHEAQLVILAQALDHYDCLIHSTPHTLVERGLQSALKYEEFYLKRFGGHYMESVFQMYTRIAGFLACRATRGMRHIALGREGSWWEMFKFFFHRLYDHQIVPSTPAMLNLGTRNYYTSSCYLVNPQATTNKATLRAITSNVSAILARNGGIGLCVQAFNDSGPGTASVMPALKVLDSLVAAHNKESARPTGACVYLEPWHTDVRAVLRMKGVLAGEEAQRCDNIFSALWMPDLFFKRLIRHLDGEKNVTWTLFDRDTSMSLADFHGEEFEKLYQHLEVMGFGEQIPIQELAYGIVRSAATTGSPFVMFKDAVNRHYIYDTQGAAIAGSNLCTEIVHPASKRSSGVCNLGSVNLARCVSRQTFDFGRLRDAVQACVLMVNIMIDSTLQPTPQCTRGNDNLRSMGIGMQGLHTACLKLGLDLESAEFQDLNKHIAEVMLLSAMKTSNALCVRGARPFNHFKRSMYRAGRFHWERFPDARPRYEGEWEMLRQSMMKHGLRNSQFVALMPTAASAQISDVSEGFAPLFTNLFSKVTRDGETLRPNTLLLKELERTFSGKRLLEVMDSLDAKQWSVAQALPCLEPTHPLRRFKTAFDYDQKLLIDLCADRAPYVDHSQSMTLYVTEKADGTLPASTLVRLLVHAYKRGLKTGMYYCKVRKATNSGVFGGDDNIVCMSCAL
Assay: not given
Particulars: Dutia et al. and Cohen et al., Nature 321 (1986); cited from earlier work.
Take “YGAVVNDL [8-desalanine homolog of the nonapeptide, Dutia et al]”: the “inhibition in vitro of enzyme activity” value was “inhibited”.

In a further test the target is ribonucleotide reductase enzyme of herpes simplex virus (Human herpesvirus 1, UniProt P08543).
Assay: not given
Particulars: Dutia et al. and Cohen et al., Nature 321 (1986); cited from earlier work.
As to Tyr Ala Gly Ala Val Val Asn Asp Leu, the “inhibition in vitro of enzyme activity” value is given as “inhibited”.
